Assay results: patent US10130590B2, “Methods of treating cancer with atovaquone-related compounds” (DANA-FARBER CANCER INSTITUTE, INC., priority 2013, dated 2018)

Assays:
INA-6 cells = test: Cell viability (Cell Titer Glo), INA-6; format: cell-based; conditions: 72 hours
Procedure: Western blotting was performed as previously described (Battle T E, Arbiser J, & Frank D A (2005) The natural product honokiol induces caspase dependent apoptosis in B-cell chronic lymphocytic leukemia (B-CLL) cells. Blood 106(2):690-697). Antibodies to phospho-MAPK (9101), total MAPK (9102), phospho-Y705 STAT3 (9131), phospho-S6 (2215), total S6 (2217), phospho-4E-BP1 (9451), total 4E-BP1 (9644), total RSK (9355), phospho-S6K (9234, 85 used at 1:5000), total S6K (2708), phospho-eIF2α (9721, used at 1:1000), total eIF2α (5324), ATF4 (11815, used at 1:1000), PDGFRβ (3169), IGF1Rβ (9750), EGFR (2232), and HER2 (2242) were from Cell Signaling Technology. Phospho-RSK antibody was from R&D (AF889). Antibodies to total STAT3 (sc-482) and gp130 (sc-656, used at 1:1000) were from Santa Cruz Biotechnology. Phospho-S727 STAT3 antibody was described previously (229). REDD1 antibody was from Proteintech (10638-1-AP, used at 1:1000). Antibody recognizing full-length and cleaved ATF6 was from Abcam (ab122897, used at 1:1000). Antibodies to tubulin (T5168) and beta actin (A5316) were from Sigma. All antibodies were used at 1:10000 dilution for western blot unless otherwise noted. […] Cell viability was measured as ATP-dependent luminescence by Cell Titer Glo (Promega). […]

U266 cells = test: Viability of U266 cells grown in patient serum; format: cell-based, human; conditions: serum approximately 100 days following HSCT; compared to serum of patients receiving TMP-SMX; 4 days
Procedure: FIG. 43 contains a dot plot quantifying viability of U266 cancer cells grown for 4 days in serum from patients taking trimethoprim/sulfamethoxazole (TMP/SMX) or atovaquone; the indicated p-value was determined using the two-sample t-test.
The patient population consisted of AML patients treated with HSCT at the Dana-Farber Cancer Institute and who survived at least 150 days after transplant without relapse. Patients treated with atovaquone for at least 100 days within the 150-day period were classified as “high atovaquone” exposure, while the remaining patients were classified as “low atovaquone” exposure. […] To further investigate the anti-cancer activity of atovaquone in patients, serum samples were collected from patients approximately 100 days following HSCT who were being treated with either TMP-SMX or atovaquone. […] Atovaquone is a colored compound, and its presence in patient plasma is visibly noticeable.

mTOR pathway = test: Western blot of mTOR pathway markers (S6, S6K, 4E-BP1); format: cell-based
Procedure: Western blotting was performed as previously described (Battle T E, Arbiser J, & Frank D A (2005) The natural product honokiol induces caspase dependent apoptosis in B-cell chronic lymphocytic leukemia (B-CLL) cells. Blood 106(2):690-697). Antibodies to phospho-MAPK (9101), total MAPK (9102), phospho-Y705 STAT3 (9131), phospho-S6 (2215), total S6 (2217), phospho-4E-BP1 (9451), total 4E-BP1 (9644), total RSK (9355), phospho-S6K (9234, 85 used at 1:5000), total S6K (2708), phospho-eIF2α (9721, used at 1:1000), total eIF2α (5324), ATF4 (11815, used at 1:1000), PDGFRβ (3169), IGF1Rβ (9750), EGFR (2232), and HER2 (2242) were from Cell Signaling Technology. Phospho-RSK antibody was from R&D (AF889). Antibodies to total STAT3 (sc-482) and gp130 (sc-656, used at 1:1000) were from Santa Cruz Biotechnology. Phospho-S727 STAT3 antibody was described previously (229). REDD1 antibody was from Proteintech (10638-1-AP, used at 1:1000). Antibody recognizing full-length and cleaved ATF6 was from Abcam (ab122897, used at 1:1000). Antibodies to tubulin (T5168) and beta actin (A5316) were from Sigma. All antibodies were used at 1:10000 dilution for western blot unless otherwise noted. For immunoprecipitations, cells were lysed in 500 μl lysis buffer (0.5% NP-40, 150 mM NaCl, 50 mM Tris pH 7.5, with protease and phosphatase inhibitors freshly added at 1:100 [Pierce, PI78443]) on ice for 15 minutes, then centrifuged for 10 minutes at 14,000 RPM and 4° C. The supernatant was transferred to a new tube and incubated with 10 μl JAK2 antibody (Santa Cruz sc-278) or a mix of two TYK2 antibodies, 10 μl of each (Santa Cruz sc-5271 and Cell Signaling Technology 9312). Immunoprecipitation was performed overnight at 4° C. with rotation. The next day, 75 μl of protein A/G beads (Santa Cruz sc-2003) were washed twice in lysis buffer, then incubated with immunoprecipitates overnight as before. The next day, the beads were spun down (1 min. at 7,500 RPM and 4° C.) and washed 3 times with 650 μl lysis buffer for 10 minutes at 4° C. with rotation, then boiled in 50 μl sample buffer+10% β-mercaptoethanol. For Western blot, 20 μl were loaded per lane. For detection of phospho-tyrosine, a mixture of two pan-phospho-tyrosine antibodies (Cell Signaling Technology 9411 and 9416, 1:1000 of each) was used. Antibody to phospho-Y1007/1008 JAK2 was from Cell Signaling 86 Technology (3771, used at 1:1000). Antibody to phospho-Y570 JAK2 was from Millipore (09-241, used at 1:1000). Luminometric Assays Luciferase reporter cell lines were described previously (186). Firefly luciferase values were normalized by concurrent cell viability. Cell viability was measured as ATP-dependent luminescence by Cell Titer Glo (Promega).
K562 cells were treated with atovaquone (20 μM) or rapamycin (10 nM) for 1 hour or 5 hours, then analyzed by Western blot. […] The requirement for prolonged treatment to observe mTOR inhibition raised the possibility that this effect was mediated by an induced factor. To test this hypothesis, cells were pretreated with cycloheximide, a protein synthesis inhibitor. K562 cells were pre-treated with vehicle or cycloheximide (2 μg/ml) for 1 hour, then treated with vehicle or atovaquone (20 μM) for 5 hours. […] Similar results were obtained with actinomycin D, an inhibitor of mRNA synthesis.
To evaluate the role of REDD1, RNA interference was used to knock down its expression in adherent SKBR3 cells, given the relative ease of introducing siRNA into these cells. SKBR3 cells were transfected with control or REDD1 siRNA for 48 hours, then treated with atovaquone (25 μM) for 4 hours.
Next, U266 cells were treated with 12.5 or 25 μM buparvaquone or 1, 5, or 25 μM 2-(4-(trans-decahydronaphth-2-yl)butyl)-3-hydroxy-1,4-naphthoquinone (Sigma analog), or DMSO vehicle control, for 2.5 hours, after which cells were harvested and immunoblots were performed with antibodies for total and phospho STAT3 and total and phospho S6.

STAT5 = STAT5 phosphorylation in cancer cells; format: cell-based
Description: It has been discovered, using an unbiased gene expression-based approach, that atovaquone is a novel STAT3 inhibitor. Atovaquone acts by diminishing cell-surface gp130 expression and STAT3 tyrosine phosphorylation. As a consequence, critical STAT3 target genes mediating survival and proliferation are reduced, such as survivin, Bcl-2 family members, and cyclin D1. Moreover, atovaquone inhibits the viability of STAT3-dependent cancer cells by inducing apoptosis and disrupting cell cycle progression. […] Since STAT5 activation is crucial to cancer pathogenesis caused by JAK2-V617F, the additional inhibition of STAT5 in this context is a desirable effect of atovaquone. […] Because the effects of atovaquone on STAT activation are restricted to gp130-dependent signaling, atovaquone inhibits STATs more selectively than direct pharmacological JAK inhibition. […] At the same time, the actions of atovaquone extend to all cytokines that signal through gp130, including LIF and OSM, thereby exerting broader effects than therapies specifically directed against IL-6 or IL-6 receptor, such as monoclonal antibodies. This is also advantageous, since oncogenic effects of LIF and OSM have been reported.

[1] = K562, 20 μM, only after 5 hours, efficacy comparable to rapamycin

Question: O=C1C(O)=C([C@H]2CC[C@H](c3ccc(Cl)cc3)CC2)C(=O)c2ccccc21 [atovaquone, trans-2-[4-(4-chlorophenyl)cyclohexyl]-3-hydroxy-1,4-naphthalenedione] was tested. Which “viability of INA-6 cells at higher doses” value (INA-6 cells) did it give?
Answer: complete loss of viability

Question: And the IC50 (INA-6 cells; INA-6)?
Answer: 11.9 µM

Question: And the “viability of U266 cells in serum from treated patients” value (U266 cells)?
Answer: reduced the viability of U266 cells

Question: And the “phosphorylation of 4E-BP1” value (mTOR pathway; [1])?
Answer: inhibited phosphorylation of 4E-BP1

Question: And the “phosphorylation of ribosomal protein S6” value (mTOR pathway; [1])?
Answer: inhibited phosphorylation

Question: And the “phosphorylation of p70S6K” value (mTOR pathway; K562, 6 hours)?
Answer: inhibited phosphorylation of p70S6K

Question: And the “inhibition of S6 phosphorylation after cycloheximide pre-treatment” value (mTOR pathway; K562 and U266, cycloheximide 2 μg/ml 1 hour)?
Answer: blocked in the presence of cycloheximide

Question: And the “inhibition of S6 phosphorylation after REDD1 knock down” value (mTOR pathway; SKBR3, REDD1 siRNA 48 hours, 25 μM 4 hours)?
Answer: largely blocked

Question: And the “mutant JAK2-dependent phosphorylation of STAT5” value (STAT5; HEL cells)?
Answer: inhibited

Question: And the “STAT5 phosphorylation (BCR-ABL activated)” value (STAT5; K562 cells)?
Answer: did not inhibit STAT5 phosphorylation
